These results are taken from patent US8455466B2, “Vitamin d analogues, compositions comprising said analogues and their use” (Leo Pharma A/S, priority 2002, dated 2013).

In one data set the test system is rats. The experiment in a line: In vivo calcemic activity in rats (Binderup et al.). Details: species or system rat. To be noted: Calcitriol = 100%.
Data set [1] has as its system bovine parathyroidea cells. The experiment in a line: In vitro PTH secretion in bovine parathyroidea cells. The format is cell-based. Particulars: cells treated with vitamin D analogues for 60 hours at 37° C. The protocol:
The calcemic activities of the compounds of the present invention were determined in rats in vivo, as previously described (Binderup, L., Bramm, E., Biochem. Pharmacol. 37, 889-895 (1988)). The PTH suppressive effect of the compounds of the present invention was tested in vitro on bovine parathyroidea cells: Fresh bovine parathyroid glands were collected from adult cattle within 20 min of slaughter. From minced parathyroid tissue dispersed parathyroid cells were prepared as previously described (E. M. Brown, S. Hurwitz and G. D Aurbach; Preparation of viable isolated bovine parathyroid cells; Endocrinology, 1976, vol 99, no 6, 1582-1588). Then, the cells were treated with vitamin D analogues for 60 hours at 37° C. and the PTH secretion was determined.

The subject of the next data set is secretion of PTH. Particulars: patients; 1α(OH)D3 versus 1,25(OH)2 D3 administered; cited from earlier work.

A value given as a limit tells only on which side of the number the result lay.

“1(S),3(R)-Dihydroxy-9,10-seco-26,27-methano-20(S)-cholesta-5(Z),7(E),10(19),22(E),24-penta-ene [Compound 7]”: the “In vivo calcemic activity relative to Calcitriol (1,25(OH)2D3)” value in the data set with rats was <0.5% ^. In addition, the “In vitro PTH secretion relative to untreated bovine parathyroidea cells (untreated cells as control = 100%)” value in data set [1] turned out to be 65%.

Turning to “1(S),3(R)-Dihydroxy-9,10-seco-26,27-methano-cholesta-5(Z),7(E),10(19),22(E),24-penta-ene [Compound 6]”, the “In vivo calcemic activity relative to Calcitriol (1,25(OH)2D3)” value in the data set with rats is given as 1%. For the same compound, the “In vitro PTH secretion relative to untreated bovine parathyroidea cells (untreated cells as control = 100%)” value in data set [1] worked out at 56%.

As for `C=C1/C(=C\C=C2/CCC[C@]3(C)[C@@H]([C@H](C)CCCC(C)C)CC[C@@H]23)C[C@@H](O)C[C@@H]1O` [1α(OH)D3], the “suppression of the secretion of PTH, compared with 1,25(OH)2 D3 dosing” value in the data set on secretion of PTH is “no significant difference”.

As for `C=C1/C(=C\C=C2/CCC[C@]3(C)[C@@H]([C@H](C)CCCC(C)(C)O)CC[C@@H]23)C[C@@H](O)C[C@@H]1O` [Calcitriol, 1,25(OH)2D3, reference compound], in the data set with rats, the “In vivo calcemic activity relative to Calcitriol (1,25(OH)2D3)” value is reported as 100%. Besides, the “In vitro PTH secretion relative to untreated bovine parathyroidea cells (untreated cells as control = 100%)” value in data set [1] stood at 60%.

Regarding `C=C1C(=CC=C2CCCC3(C)C2CCC3C(C)C=CC=C(C)C)CC(O)CC1O` [Compound 1, 1(S),3(R)-Dihydroxy-9,10-secocholesta-5(Z),7(E),10(19),22(E),24-penta-ene], the “In vivo calcemic activity relative to Calcitriol (1,25(OH)2D3)” value with rats is given as <10% ^. The “In vitro PTH secretion relative to untreated bovine parathyroidea cells (untreated cells as control = 100%)” value in data set [1] came out at 57%.

Consider `C=C1C(=CC=C2CCCC3(C)C2CCC3C(C)C=CC=C(C)C)CC(O)CC1O` [Compound 3, 1(S),3(R)-Dihydroxy-9,10-seco-20(S)-cholesta-5(Z),7(E),10(19), 22(E),24-penta-ene], for which the “In vivo calcemic activity relative to Calcitriol (1,25(OH)2D3)” value in the data set on rats is recorded as 1%. The “In vitro PTH secretion relative to untreated bovine parathyroidea cells (untreated cells as control = 100%)” value in data set [1] was found to be 61%.

With `C=C1C(=CC=C2CCCC3(C)C2CCC3C(C)C=CC=C(C(F)(F)F)C(F)(F)F)CC(O)CC1O` [Compound 25, 1(S),3(R)-Dihydroxy-26,26,26,27,27,27-hexafluoro-9,10-secocholesta-5(Z),7(E),10(19),22(E),24-penta-ene], the “In vivo calcemic activity relative to Calcitriol (1,25(OH)2D3)” value with rats is given as 8%. Moreover, the “In vitro PTH secretion relative to untreated bovine parathyroidea cells (untreated cells as control = 100%)” value in data set [1] amounted to 74%.

On to `C=C1C(=CC=C2CCCC3(C)C2CCC3C(C)C=CC=C(Br)Br)CC(O)CC1O` [Compound 27, 1(S),3(R)-Dihydroxy-20(R)-(4,4-dibromo-1,3-butadien-1-yl)-9,10-seco-pregna-5(Z),7(E),10(19)-triene], for which the “In vivo calcemic activity relative to Calcitriol (1,25(OH)2D3)” value with rats is <0.5% ^. Also, the “In vitro PTH secretion relative to untreated bovine parathyroidea cells (untreated cells as control = 100%)” value in data set [1] is on record as 65%.

Take `C=C1/C(=C\C=C2/CCC[C@]3(C)[C@@H]([C@H](C)/C=C/C=C(CC)CC)CC[C@@H]23)C[C@@H](O)C[C@@H]1O` [Compound 28, 1(S),3(R)-Dihydroxy-26,27-dimethyl-9,10-secocholesta-5(Z),7(E),10(19),22(E),24-penta-ene]: the “In vivo calcemic activity relative to Calcitriol (1,25(OH)2D3)” value with rats was 1%. Besides, the “In vitro PTH secretion relative to untreated bovine parathyroidea cells (untreated cells as control = 100%)” value in data set [1] stood at 62%.
